Source: PubChem BioAssay AID1963974 (Molecular Pharmacology Branch, DTP, NCI, 2024)

Tested on: 648629-189-R-J1-PDC spheroids with HUVEC/MSC, viability
Assay: Anticancer human tumor 648629-189-R-J1-PDC patient-derived bladder carcinoma cell line growth inhibition [PI3K]
Settings: for IC50: curve of first compound; for viability, T/C: stronger effect = lower value
Summary of the method: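 Combination activity was assessed by viability in multicellular tumor spheroids carrying HUVEC and MSC components. Agents were tested with PI3K inhibitors from a Cmax-based top dose (or 10 microM) downward in half-log increments.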

[1] = second compound 0.00316 µM, first compound 0.0316 µM
[2] = second compound 0.00316 µM, first compound 0.1 µM
[3] = second compound 0.00316 µM, first compound 0.316 µM
[4] = second compound 0.00316 µM, first compound 1 µM
[5] = second compound 0.00316 µM, first compound 3.16 µM
[6] = second compound 0.00316 µM, first compound 10 µM
[7] = second compound 0.01 µM, first compound 0.0316 µM
[8] = second compound 0.01 µM, first compound 0.1 µM
[9] = second compound 0.01 µM, first compound 0.316 µM
[10] = second compound 0.01 µM, first compound 1 µM
[11] = second compound 0.01 µM, first compound 3.16 µM
[12] = second compound 0.01 µM, first compound 10 µM
[13] = second compound 0.0316 µM, first compound 0.0316 µM
[14] = second compound 0.0316 µM, first compound 0.1 µM
[15] = second compound 0.0316 µM, first compound 0.316 µM
[16] = second compound 0.0316 µM, first compound 1 µM
[17] = second compound 0.0316 µM, first compound 3.16 µM
[18] = second compound 0.0316 µM, first compound 10 µM
[19] = second compound 0.1 µM, first compound 0.0316 µM
[20] = second compound 0.1 µM, first compound 0.1 µM
[21] = second compound 0.1 µM, first compound 0.316 µM
[22] = second compound 0.1 µM, first compound 1 µM
[23] = second compound 0.1 µM, first compound 3.16 µM
[24] = second compound 0.1 µM, first compound 10 µM
[25] = second compound 0.316 µM, first compound 0.0316 µM
[26] = second compound 0.316 µM, first compound 0.1 µM
[27] = second compound 0.316 µM, first compound 0.316 µM
[28] = second compound 0.316 µM, first compound 1 µM
[29] = second compound 0.316 µM, first compound 3.16 µM
[30] = second compound 0.316 µM, first compound 10 µM
[31] = second compound 1 µM, first compound 0.0316 µM
[32] = second compound 1 µM, first compound 0.1 µM
[33] = second compound 1 µM, first compound 0.316 µM
[34] = second compound 1 µM, first compound 1 µM
[35] = second compound 1 µM, first compound 3.16 µM
[36] = second compound 1 µM, first compound 10 µM
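Note: spheroids exposed to agents for seven days before reading.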
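Throughout, for viability, T/C: percent of vehicle control luminescence where 100% = DMSO treated spheroids.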

SMILES: C#Cc1c(F)ccc2cc(O)cc(-c3ncc4c(N5CC6CCC(C5)N6)nc(OCC56CCCN5CC(F)C6)nc4c3F)c12 (centres undefined) + CC(Nc1ccc2c(c1)OCCn1cc(N3C(=O)OCC3C(F)F)nc1-2)C(N)=O
- IC50 (second compound 0.00316 µM): > 10 µM
- IC50 (second compound 0.01 µM): > 10 µM
- IC50 (second compound 0.0316 µM): > 10 µM
- IC50 (second compound 0.1 µM): > 10 µM
- IC50 (second compound 0.316 µM): > 10 µM
- IC50 (second compound 1 µM): > 10 µM
- viability, T/C [1]: 105%
- viability, T/C [2]: 96.2%
- viability, T/C [3]: 109%
- viability, T/C [4]: 96.6%
- viability, T/C [5]: 120%
- viability, T/C [6]: 102%
- viability, T/C [7]: 97.9%
- viability, T/C [8]: 99.9%
- viability, T/C [9]: 96.3%
- viability, T/C [10]: 97%
- viability, T/C [11]: 106%
- viability, T/C [12]: 85.8%
- viability, T/C [13]: 105%
- viability, T/C [14]: 100%
- viability, T/C [15]: 93.2%
- viability, T/C [16]: 99.1%
- viability, T/C [17]: 103%
- viability, T/C [18]: 92.5%
- viability, T/C [19]: 92.7%
- viability, T/C [20]: 85.5%
- viability, T/C [21]: 81.7%
- viability, T/C [22]: 90%
- viability, T/C [23]: 95.4%
- viability, T/C [24]: 89.3%
- viability, T/C [25]: 82.3%
- viability, T/C [26]: 75%
- viability, T/C [27]: 71.7%
- viability, T/C [28]: 74.8%
- viability, T/C [29]: 80.8%
- viability, T/C [30]: 75.3%
- viability, T/C [31]: 57.5%
- viability, T/C [32]: 66.4%
- viability, T/C [33]: 63.2%
- viability, T/C [34]: 58.7%
- viability, T/C [35]: 64.5%
- viability, T/C [36]: 57.4%

SMILES: C=CC(=O)N1CCN(c2nc(=O)n(-c3c(C)ccnc3C(C)C)c3nc(-c4c(O)cccc4F)c(F)cc23)C(C)C1 (centres undefined) + CC(Nc1ccc2c(c1)OCCn1cc(N3C(=O)OCC3C(F)F)nc1-2)C(N)=O
- IC50 (second compound 0.00316 µM): > 10 µM
- IC50 (second compound 0.01 µM): > 10 µM
- IC50 (second compound 0.0316 µM): > 10 µM
- IC50 (second compound 0.1 µM): > 10 µM
- IC50 (second compound 0.316 µM): > 10 µM
- IC50 (second compound 1 µM): > 10 µM
- viability, T/C [1]: 111%
- viability, T/C [2]: 99.1%
- viability, T/C [3]: 117%
- viability, T/C [4]: 105%
- viability, T/C [5]: 106%
- viability, T/C [6]: 92.3%
- viability, T/C [7]: 121%
- viability, T/C [8]: 106%
- viability, T/C [9]: 111%
- viability, T/C [10]: 114%
- viability, T/C [11]: 115%
- viability, T/C [12]: 92.3%
- viability, T/C [13]: 101%
- viability, T/C [14]: 108%
- viability, T/C [15]: 98.2%
- viability, T/C [16]: 106%
- viability, T/C [17]: 123%
- viability, T/C [18]: 92.5%
- viability, T/C [19]: 92.4%
- viability, T/C [20]: 106%
- viability, T/C [21]: 107%
- viability, T/C [22]: 115%
- viability, T/C [23]: 103%
- viability, T/C [24]: 92.5%
- viability, T/C [25]: 92.6%
- viability, T/C [26]: 93.1%
- viability, T/C [27]: 84.1%
- viability, T/C [28]: 95.2%
- viability, T/C [29]: 84.5%
- viability, T/C [30]: 78.1%
- viability, T/C [31]: 73.1%
- viability, T/C [32]: 71.9%
- viability, T/C [33]: 73.5%
- viability, T/C [34]: 80.7%
- viability, T/C [35]: 91.8%
- viability, T/C [36]: 66.2%
